From PMC11302589 (Organic & biomolecular chemistry, 2012) come the findings set out here.

Experiment [1] concerns the target Vibrio cholerae sialidase (type III) (Vibrio cholerae serotype O1, UniProt P0C6E9). Description: biochemical. The format is biochemical. Particulars: for IC50: V. cholerae.
Experiment [2] has as its target Salmonella typhimurium sialidase (Salmonella typhimurium, UniProt P29768). As to the kind of experiment: biochemical.
In experiment [3] the target is Streptococcus pneumoniae sialidase NanB (Streptococcus pneumoniae serotype 4, UniProt Q54727). Description: biochemical.
Chain of Streptococcus pneumoniae sialidase NanB (Q54727 30-697): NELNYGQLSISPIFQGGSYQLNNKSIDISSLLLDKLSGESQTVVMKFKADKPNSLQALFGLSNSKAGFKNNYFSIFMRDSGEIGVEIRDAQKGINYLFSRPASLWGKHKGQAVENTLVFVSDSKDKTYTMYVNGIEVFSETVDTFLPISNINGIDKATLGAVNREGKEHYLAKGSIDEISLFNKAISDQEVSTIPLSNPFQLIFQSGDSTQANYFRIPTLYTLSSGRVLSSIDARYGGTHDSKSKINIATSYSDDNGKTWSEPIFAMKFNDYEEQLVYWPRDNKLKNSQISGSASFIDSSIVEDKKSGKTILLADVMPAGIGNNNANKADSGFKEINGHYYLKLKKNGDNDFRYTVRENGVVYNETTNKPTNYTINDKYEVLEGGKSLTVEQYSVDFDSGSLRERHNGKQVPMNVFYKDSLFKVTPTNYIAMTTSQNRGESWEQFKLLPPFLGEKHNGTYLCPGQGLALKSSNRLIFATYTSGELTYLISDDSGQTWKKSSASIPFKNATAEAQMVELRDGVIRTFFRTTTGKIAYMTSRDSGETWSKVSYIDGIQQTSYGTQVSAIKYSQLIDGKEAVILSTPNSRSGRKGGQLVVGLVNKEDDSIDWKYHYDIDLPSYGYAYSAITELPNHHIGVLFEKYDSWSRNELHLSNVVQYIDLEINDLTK
For experiment [4], the target named is human cytosolic sialidase NEU2 (Homo sapiens, UniProt Q9Y3R4). As to the kind of experiment: biochemical. The format is biochemical. To be noted: for IC50: IC50 with Neu5Acα2–3GalβpNP as sialidase substrate, NEU2.
Chain of human cytosolic sialidase NEU2 (Q9Y3R4 whole entry): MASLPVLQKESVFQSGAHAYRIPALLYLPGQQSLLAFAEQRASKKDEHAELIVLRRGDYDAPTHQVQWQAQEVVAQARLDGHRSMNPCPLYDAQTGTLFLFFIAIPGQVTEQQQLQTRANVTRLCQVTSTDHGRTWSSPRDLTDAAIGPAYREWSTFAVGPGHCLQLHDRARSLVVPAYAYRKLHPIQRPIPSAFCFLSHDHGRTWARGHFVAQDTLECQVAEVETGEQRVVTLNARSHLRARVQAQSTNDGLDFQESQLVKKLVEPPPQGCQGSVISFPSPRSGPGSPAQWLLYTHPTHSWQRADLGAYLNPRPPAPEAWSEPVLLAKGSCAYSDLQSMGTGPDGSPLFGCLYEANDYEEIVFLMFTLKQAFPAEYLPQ
Another experiment has as its target T1, β-galactosidase (Aspergillus oryzae, UniProt Q2UCU3).
T1 sequence (Q2UCU3 19-1005): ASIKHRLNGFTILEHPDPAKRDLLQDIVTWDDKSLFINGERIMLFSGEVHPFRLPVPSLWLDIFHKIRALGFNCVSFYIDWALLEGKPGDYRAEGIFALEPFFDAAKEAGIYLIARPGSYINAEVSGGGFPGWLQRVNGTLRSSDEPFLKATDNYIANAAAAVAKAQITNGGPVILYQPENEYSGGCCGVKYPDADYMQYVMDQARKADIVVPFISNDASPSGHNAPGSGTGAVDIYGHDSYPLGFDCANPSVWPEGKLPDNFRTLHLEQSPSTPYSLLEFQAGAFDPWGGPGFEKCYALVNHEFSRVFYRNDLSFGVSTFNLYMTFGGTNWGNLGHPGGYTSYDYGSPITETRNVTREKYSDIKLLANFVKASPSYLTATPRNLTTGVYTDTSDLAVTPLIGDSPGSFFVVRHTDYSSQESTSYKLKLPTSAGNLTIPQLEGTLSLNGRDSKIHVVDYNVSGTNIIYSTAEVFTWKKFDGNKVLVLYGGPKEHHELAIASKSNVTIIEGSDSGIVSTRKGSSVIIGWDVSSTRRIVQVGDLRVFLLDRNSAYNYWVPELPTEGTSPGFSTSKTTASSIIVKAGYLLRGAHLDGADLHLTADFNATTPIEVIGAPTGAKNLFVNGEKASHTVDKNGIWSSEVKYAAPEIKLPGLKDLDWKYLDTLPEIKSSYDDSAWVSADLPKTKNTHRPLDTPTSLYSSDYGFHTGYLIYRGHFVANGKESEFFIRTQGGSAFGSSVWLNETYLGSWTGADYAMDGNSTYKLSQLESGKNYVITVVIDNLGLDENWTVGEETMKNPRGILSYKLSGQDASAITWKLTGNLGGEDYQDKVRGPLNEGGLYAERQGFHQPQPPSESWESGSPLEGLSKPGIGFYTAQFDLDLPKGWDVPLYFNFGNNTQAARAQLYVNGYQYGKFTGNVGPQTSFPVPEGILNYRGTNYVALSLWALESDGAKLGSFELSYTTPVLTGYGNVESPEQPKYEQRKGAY
In kind it is biochemical.

Where [5] appears, read: IC50 with Neu5Acα2–3GalβpNP as sialidase substrate.
The mark [6] stands for this setting: IC50 with Neu5Acα2–6GalβpNP as sialidase substrate.

Chain of Vibrio cholerae sialidase (type III) (P0C6E9 25-781 limits assumed): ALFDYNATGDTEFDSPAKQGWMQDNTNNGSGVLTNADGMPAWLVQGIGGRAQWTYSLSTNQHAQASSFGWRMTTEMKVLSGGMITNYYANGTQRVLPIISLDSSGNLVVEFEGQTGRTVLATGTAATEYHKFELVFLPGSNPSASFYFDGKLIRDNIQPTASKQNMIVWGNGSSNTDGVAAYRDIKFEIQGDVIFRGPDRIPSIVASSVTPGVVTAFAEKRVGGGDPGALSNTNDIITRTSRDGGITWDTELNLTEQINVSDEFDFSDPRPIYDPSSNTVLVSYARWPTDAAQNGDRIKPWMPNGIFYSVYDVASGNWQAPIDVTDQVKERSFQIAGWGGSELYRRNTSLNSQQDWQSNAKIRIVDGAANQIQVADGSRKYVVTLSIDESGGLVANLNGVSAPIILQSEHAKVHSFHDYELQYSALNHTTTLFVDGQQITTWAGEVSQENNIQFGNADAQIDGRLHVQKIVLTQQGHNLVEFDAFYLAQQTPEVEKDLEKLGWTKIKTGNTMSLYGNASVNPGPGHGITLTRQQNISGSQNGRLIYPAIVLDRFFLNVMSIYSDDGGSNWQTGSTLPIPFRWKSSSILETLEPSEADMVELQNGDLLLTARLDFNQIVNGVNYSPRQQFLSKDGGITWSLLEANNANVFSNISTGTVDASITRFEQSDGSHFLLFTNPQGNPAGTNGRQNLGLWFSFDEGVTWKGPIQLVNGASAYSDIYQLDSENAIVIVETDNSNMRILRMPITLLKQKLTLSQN
Chain of Salmonella typhimurium sialidase (P29768 whole entry): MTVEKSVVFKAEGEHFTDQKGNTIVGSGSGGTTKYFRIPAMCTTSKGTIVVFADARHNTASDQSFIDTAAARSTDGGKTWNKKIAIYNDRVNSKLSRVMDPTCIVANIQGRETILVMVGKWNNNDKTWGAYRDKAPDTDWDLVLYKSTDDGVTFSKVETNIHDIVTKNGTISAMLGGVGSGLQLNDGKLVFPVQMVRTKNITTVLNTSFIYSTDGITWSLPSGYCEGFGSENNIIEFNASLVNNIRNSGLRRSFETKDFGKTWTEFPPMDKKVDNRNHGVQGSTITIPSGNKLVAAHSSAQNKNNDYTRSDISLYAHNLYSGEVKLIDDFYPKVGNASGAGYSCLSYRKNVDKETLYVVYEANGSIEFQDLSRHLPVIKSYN

As usually defined, the IC50 is the concentration needed to halve the response being measured. The low end stands for inhibition by little substance, the high end for a need for much substance. `[N-]=[N+]=NC[C@@H](O)[C@@H](O)[C@@H]1OC(C(=O)O)=C[C@H](O)[C@H]1NC(=O)CO` [Neu5Gc9N32en (4), 2,6-Anhydro-9-azido-3,5,9-trideoxy-5-(2-hydroxyacetamido)-D-glycero-D-galacto-non-2-enonic acid]: the “selectivity for V. cholerae sialidase among the five sialidases tested” value in experiment [1] was “selective inhibitor”. For the same molecule, the half-inhibitory concentration (IC50) is 18 ± 3 µM in experiment [1] (setting [5]); 13 ± 2 µM in experiment [1] (setting [6]); greater than 10000 µM in experiment [2]; greater than 10000 µM in experiment [3]; 150 µM in experiment [4]. Moreover, the “inhibitory effect against β-galactosidase” value (from here on “inhibitory effect”) at β-galactosidase is “no inhibitory effect”.

With `COC[C@@H](O)[C@@H](O)[C@@H]1OC(C(=O)O)=C[C@H](O)[C@H]1NC(C)=O` [Neu5Ac9Me2en (6), 5-Acetamido-2,6-anhydro-3,5-dideoxy-9-O-methyl-D-glycero-D-galacto-non-2-enonic acid], the 50% inhibitory concentration (IC50) worked out at 130 µM in experiment [1] (setting [5]); 120 µM in experiment [1] (setting [6]); 130 µM in experiment [2]; 3000 µM in experiment [3]; 1100 µM in experiment [4]. The “inhibitory effect” value against β-galactosidase is given as “no inhibitory effect”.

For `CCCNC[C@@H](O)[C@@H](O)[C@@H]1OC(C(=O)O)=C[C@H](O)[C@H]1NC(C)=O` [Neu5Ac9NPro2en (7), 5-Acetamido-9-aminopropyl-2,6-anhydro-3,5,9-trideoxy-D-glycero-D-galacto-non-2-enonic acid], the IC50 in experiment [1] (setting [5]) is greater than 1000 µM; in experiment [1] (setting [6]), greater than 1000 µM; in experiment [2], 2300 µM; in experiment [3] it was 5400 µM. At β-galactosidase, the “inhibitory effect” value is “no inhibitory effect”.

With `CC(=O)N[C@H]1[C@H]([C@H](O)[C@H](O)CN=[N+]=[N-])OC(C(=O)O)=C[C@@H]1O` [Neu5Ac9N32en (3), 5-Acetamido-2,6-anhydro-9-azido-3,5,9-trideoxy-D-glycero-D-galacto-non-2-enonic acid], the “fold less efficient than Neu5Ac2en (1) against V. cholerae sialidase” value in experiment [1] stood at 2.3 fold. The IC50 in experiment [1] (setting [6]) was 8.7 ± 1 µM; in experiment [2], 210 µM; in experiment [3], 3300 µM; in experiment [4], 43 ± 2 µM. Further, in experiment [4], the “fold less efficient than Neu5Ac2en (1) against human NEU2” value is recorded as 2.4 fold. For the same molecule, the “inhibitory effect” value on β-galactosidase is reported as “no inhibitory effect”.

As to `CC(=O)N[C@H]1[C@H]([C@H](O)[C@H](O)CO)OC(C(=O)O)=C[C@@H]1O` [Neu5Ac2en (1), 2-deoxy-2,3-dehydro-N-acetylneuraminic acid, reference compound], the “inhibitory effect” value on β-galactosidase is “no inhibitory effect”.

`[N-]=[N+]=NCC(=O)N[C@H]1[C@H]([C@H](O)[C@H](O)CN=[N+]=[N-])OC(C(=O)O)=C[C@@H]1O` [Neu5AcN39N32en (5), 2,6-Anhydro-9-azido-5-(2-azidoacetamido)-3,5,9-trideoxy-D-glycero-D-galacto-non-2-enonic acid]: the half-inhibitory concentration (IC50) was 140 µM in experiment [1] (setting [5]), 110 µM in experiment [1] (setting [6]), 16000 µM in experiment [2] and greater than 1000 µM in experiment [3]. Moreover, the “inhibitory effect” value at β-galactosidase is on record as “no inhibitory effect”.
